A short description of series [1]: Solubility in 0.1 M pH 7.0 phosphate buffer (bioassay and UV-assay). Format: physicochemical. The conditions noted are these: for solubility at 4 h: 0.1 m phosphate buffer, pH 7, aqueous buffer. The method, then:
*Stirred at 25° C. for 4 hours in 0.1 M pH 7.0 phosphate
buffer--filtered through Milipore filter (0.45 μ)--assayed
spectroscopically against its own standard.
The test solution and the standard solution are prepared as described below.
About 10 mg. (1) of a sample is placed in a vial and mixed with 1 ml. of 0.1 M phosphate buffer (pH 7.0). The vial is stoppered, sealed with a metal cap, placed on a rotary shaker and agitated at 160 rpm for 4 hr. at 25° C. The solution is filtered through a Millipore filter (HAWP 01300, mean pore size 0.45 μm). The filtrate is diluted to use for bioassay and UV assay as follows:
About 2 mg. of the same sample is weighed precisely and dissolved in 4 ml. of 1% K2 CO3 solution^(3) (usually within one minute). The solution is diluted exactly to 50 ml. in a flask with 0.1 M pH 7.0 phosphate buffer and used for the preparation of the standard solutions for bioassay and UV-assay as follows:
(1) A 20 mg. or more sample is used when the sample is expected to be more soluble.
(2) 0.1 M pH 7.0 phosphate buffer is used as a diluent in the present test and also as a reference solution in UV-assay.
(3) It was previously confirmed that almost the same result is obtained when the sample is solubilized in DMSO (dimethylsulfoxide) and then diluted similarily with the buffer.
(4) Volume of the solution is measured precisely with an appropriate pipette or flask.
BA: Bioassay, UV: UV-assay Results given for the same compound on different lines were obtained using samples from different lots.

A further series has as its system S. aureus Smith A9537. In words: M.I.C. by Tube Dilution, S. aureus Smith A9537. Format: cell-based. The conditions noted are these: Staphylococcus aureus, 10^-4 dilution, overnight at 37° C.
For a further series, the system named is S. aureus Russel. In words: M.I.C. by Tube Dilution, S. aureus Russel. Format: cell-based. The conditions noted are these: Staphylococcus aureus, Nutrient Broth, overnight at 37° C.
In a further series the test system is S. aureus BX1633 A9606. The series is described as follows: M.I.C. by Tube Dilution, S. aureus BX1633 A9606. The series is classed as cell-based. The conditions noted are these: Staphylococcus aureus, BX1633A9606, S. aureus BX1633 A9606; Nutrient Broth, overnight at 37° C.
A further series relates to Str. pyogenes A9604. The series is described as follows: M.I.C. by Tube Dilution, Str. pyogenes A9604. Format: cell-based. As to conditions: Streptococcus pyogenes; Str. pyogenes A9604 + 5% serum; 50% Nutrient Broth - 45% Antibiotic Assay Broth; overnight at 37° C.
The next series has as its system D. pneumoniae A9585. The series is described as follows: M.I.C. by Tube Dilution, D. pneumoniae A9585. The series is classed as cell-based. As to conditions: Streptococcus pneumoniae, A9585, D. pneumoniae A9585 + 5% serum; 50% Nutrient Broth - 45% Antibiotic Assay Broth; overnight at 37° C.
The subject of a further series is Mycobacterium 607. The series is described as follows: M.I.C. by Tube Dilution, Mycobacterium 607. The series is classed as cell-based. The conditions noted are these: overnight at 37° C.
A further series has as its system E. coli NIHJ. The series is described as follows: M.I.C. by Tube Dilution, E. coli NIHJ. Format: cell-based. As to conditions: Escherichia coli, overnight at 37° C.
In the next series the test system is E. coli ATCC 8739. In words: M.I.C. by Tube Dilution, E. coli ATCC 8739. The series is classed as cell-based. As to conditions: Escherichia coli, ATCC8739, overnight at 37° C.
For a further series, the system named is E. coli Juhl A15119. The series is described as follows: M.I.C. by Tube Dilution, E. coli Juhl A15119. Format: cell-based. The conditions noted are these: Escherichia coli, JUHLA15119, 10^-4 dilution, overnight at 37° C.
A further series relates to K. pneumoniae A9977. The series is described as follows: M.I.C. by Tube Dilution, K. pneumoniae A9977. Format: cell-based. The conditions noted are these: Klebsiella pneumoniae, 10^-4 dilution, overnight at 37° C.
In a further series the test system is K. pneumoniae A15130. In words: M.I.C. by Tube Dilution, K. pneumoniae A15130. The series is classed as cell-based. The conditions noted are these: Klebsiella pneumoniae, 10^-4 dilution, overnight at 37° C.
The test system of the next series is Pr. mirabilis A9900. The series is described as follows: M.I.C. by Tube Dilution, Pr. mirabilis A9900. Format: cell-based. The conditions noted are these: Proteus mirabilis, 10^-4 dilution, overnight at 37° C.
A further series relates to Pr. morganii A15153. The series is described as follows: M.I.C. by Tube Dilution, Pr. morganii A15153. As to conditions: Morganella morganii, 10^-4 dilution, overnight at 37° C. Format: cell-based.
In the next series the test system is Sal. enteritidis A9531. In words: M.I.C. by Tube Dilution, Sal. enteritidis A9531. The series is classed as cell-based. As to conditions: Salmonella enterica, 10^-4 dilution, overnight at 37° C.
The next series relates to Ser. marcescens A20019. The series is described as follows: M.I.C. by Tube Dilution, Ser. marcescens A20019. The series is classed as cell-based. The conditions noted are these: Serratia marcescens, 10^-4 dilution, overnight at 37° C.
The test system of another series is Ps. aeruginosa A9843. In words: M.I.C. by Tube Dilution, Ps. aeruginosa A9843. The series is classed as cell-based. As to conditions: Pseudomonas aeruginosa, 10^-4 dilution, overnight at 37° C.
A further series relates to S. aureus BX-1633. The series is described as follows: Minimum curative dose in infected mice, S. aureus BX-1633. As to conditions: Staphylococcus aureus, BX1633, sc; subcutaneous, mice infected with lethal dose of S. aureus BX-1633; read-out: CD50 (minimum curative dose for 50% of the mice). Format: in vivo.
The next series concerns E coli Juhl. The series is described as follows: Minimum curative dose in infected mice, E coli Juhl. Format: in vivo. The conditions noted are these: Mus musculus, sc; subcutaneous, mice infected with lethal dose of E coli Juhl; read-out: CD50 (minimum curative dose for 50% of the mice).
A further series is described as follows: Water solubility. Format: physicochemical. As to conditions: sodium salt.

Consider two compounds from patent publication US3946000A, “7-[α-(2-Aminomethyl-1-cyclohexenyl)-acetamido]-3-heterocyclic thiomethyl-3-cephem-4-carboxylic acids” (Bristol-Myers Company, priority 1973, dated 1976).

Molecules are shown by their SMILES. ≈ marks a conversion by molar mass, not a printed value. Like-named read-outs stand apart in the source and are kept apart here.

`Cn1nnnc1SCC1=C(C(=O)O)N2C(=O)C(NC(=O)CC3=C(CN)CCCC3)[C@H]2SC1` (stereo partly shown) [Example 3, 7-[(2-aminomethyl-1-cyclohexen-1-yl)acetamido]-3-(1-methyltetrazol-5-ylthiomethyl)-3-cephem-4-carboxylic acid]: the “Solubility, UV (UV-assay)” value in series [1] (0.1 M phosphate buffer (pH 7.0), 4 hr. at 25° C., UV-assay, listed as BB-S336, 240 min) is 26.0 mg/mL (≈ 54200 µM). Moreover, in [1] (0.1 M phosphate buffer (pH 7.0), 4 hr. at 25° C., bioassay, listed as BB-S336, 240 min), the “Solubility, BA (bioassay)” value worked out at 23.0 mg/mL (≈ 48000 µM). Also, the solubility (in general, how much of the substance goes into solution per volume) at 4 h in series [1] (0.1 M phosphate buffer (pH 7.0), 4 hr. at 25° C., UV-assay, read-out: Solubility, UV (UV-assay)) was 24.6 mg/mL (≈ 51300 µM); in series [1] (0.1 M phosphate buffer (pH 7.0), 4 hr. at 25° C., bioassay, read-out: Solubility, BA (bioassay)) it was 25.6 mg/mL (≈ 53400 µM); in [1] (stirred at 25° C. for 4 hours in 0.1 M pH 7.0 phosphate buffer, assayed spectroscopically against its own standard, read-out: Solubility) it was 23 to 26 mg/mL (≈ 48000 to 54200 µM). In addition, the minimum inhibitory concentration (MIC) (commonly the least concentration at which growth counts as inhibited) in the series on S. aureus Smith A9537 (SMITHA9537, S. aureus Smith A9537 + 50% serum) is 0.8 to 1.6 µg/mL; with S. aureus Smith A9537 (SMITHA9537, S. aureus Smith A9537, Nutrient Broth), 0.2 to 0.4 µg/mL (≈ 0.417 to 0.834 µM); against S. aureus Russel it was 0.4 to 0.8 µg/mL (≈ 0.834 to 1.67 µM); against S. aureus BX1633 A9606 it was 1.6 µg/mL (≈ 3.34 µM); with Str. pyogenes A9604, 0.04 to 0.08 µg/mL; in the series on D. pneumoniae A9585, 0.04 to 0.08 µg/mL. The minimal inhibitory concentration (MIC) in the series with Mycobacterium 607 is more than 100 µg/mL; against E. coli NIHJ it was 1.6 to 3.1 µg/mL (≈ 3.34 to 6.46 µM); in the series with E. coli ATCC 8739, 3.1 to 6.3 µg/mL (≈ 6.46 to 13.1 µM); against E. coli Juhl A15119 it was 3.1 to 6.3 µg/mL (≈ 6.46 to 13.1 µM); against K. pneumoniae A9977, 0.8 to 3.1 µg/mL (≈ 1.67 to 6.46 µM); with K. pneumoniae A15130, 3.1 to 6.3 µg/mL (≈ 6.46 to 13.1 µM). For the same compound, the minimum inhibitory concentration (MIC) is 100 µg/mL (≈ 209 µM) against Pr. mirabilis A9900; more than 100 µg/mL in the series on Pr. morganii A15153; 1.6 to 3.1 µg/mL (≈ 3.34 to 6.46 µM) against Sal. enteritidis A9531; more than 100 µg/mL against Ser. marcescens A20019; more than 100 µg/mL against Ps. aeruginosa A9843. Besides, the ED50 was found to be 2.4 mg/kg in the series on S. aureus BX-1633 and 5.4 mg/kg in the series on E coli Juhl.
As for `Cn1nnnc1SCC1=C(C(=O)O)N2C(=O)C(NC(=O)CC3=C(CN)CCCC3)C2SC1` (stereo not shown) [Example 15], in the series “Water solubility”, the solubility is more than 250 mg/mL.
